In patent US7928078B2, “Conjugates of immune cell specific macrolide compounds with anti-inflammatory compounds for improved cellular targeting of anti-inflammatory therapy” (GlaxoSmithKline Istrazivacki Centar Zagreb D.O.O., priority 2001, dated 2011):

| SMILES | melting point |
| --- | --- |
| CC[C@H]1OC(=O)[C@H](C)[C@@H](O)[C@H](C)[C@@H](O[C@@H]2O[C@H](C)C[C@@H](N(C)C)[C@H]2O)[C@](C)(O)C[C@@H](C)CN(CCCNC(=O)[C@@]2(O)CCC3C4CCC5=CC(=O)CC[C@]5(C)C4[C@@H](O)C[C@@]32C)[C@H](C)[C@@H](O)[C@]1(C)O (some centres unmarked) | 160 to 161 °C |
| CC[C@H]1OC(=O)[C@H](C)[C@@H](O[C@@H]2C[C@](C)(OC)[C@H](O)C(C)O2)[C@H](C)[C@@H](O[C@@H]2O[C@H](C)C[C@@H](N(C)C)[C@H]2O)[C@](C)(O)C[C@@H](C)CN(CCCNC(=O)[C@@]23OC(C)(C)O[C@@H]2CC2C4C[C@H](F)C5=CC(=O)C=C[C@]5(C)[C@@]4(F)[C@@H](O)C[C@@]23C)[C@H](C)[C@@H](O)[C@]1(C)O (some centres unmarked) | 178 °C |
| CC[C@H]1OC(=O)[C@H](C)[C@@H](O[C@@H]2C[C@](C)(OC)[C@H](O)C(C)O2)[C@H](C)[C@@H](O[C@@H]2O[C@H](C)C[C@@H](N(C)C)[C@H]2OC(=O)CCCCOC(=O)[C@@]2(O)[C@H](C)CC3C4C[C@H](F)C5=CC(=O)C=C[C@]5(C)[C@@]4(F)[C@@H](O)C[C@@]32C)[C@](C)(O)C[C@@H](C)CN(C)[C@H](C)[C@@H](O)[C@]1(C)O (some centres unmarked) | 159 to 160 °C |
| CC[C@H]1OC(=O)C(C)[C@@H](O)[C@H](C)[C@@H](O[C@@H]2O[C@H](C)C[C@@H](N(C)C)[C@H]2O)[C@](C)(O)C[C@@H](C)CN(CCCNC(=O)[C@@]2(O)[C@H](C)CC3C4C[C@H](F)C5=CC(=O)C=C[C@]5(C)[C@@]4(Cl)[C@@H](O)C[C@@]32C)[C@H](C)[C@@H](O)[C@]1(C)O (some centres unmarked) | 130 to 132 °C |
| CC[C@H]1OC(=O)[C@H](C)[C@@H](O[C@@H]2C[C@](C)(OC)[C@H](O)C(C)O2)[C@H](C)[C@@H](O[C@@H]2O[C@H](C)C[C@@H](N(C)C)[C@H]2O)[C@](C)(O)C[C@@H](C)CN(CCCNC(=O)[C@@]2(O)[C@H](C)CC3C4C[C@H](F)C5=CC(=O)C=C[C@]5(C)C4[C@@H](O)C[C@@]32C)[C@H](C)[C@@H](O)[C@]1(C)O (some centres unmarked) | 175 to 178 °C |
| CC[C@H]1OC(=O)[C@H](C)[C@@H](OC(=O)CCCCOC(=O)[C@@]2(O)[C@H](C)CC3C4CCC5=CC(=O)C=C[C@]5(C)[C@@]4(F)[C@@H](O)C[C@@]32C)[C@H](C)[C@@H](O[C@@H]2O[C@H](C)C[C@@H](N(C)C)[C@H]2OC(C)=O)[C@](C)(O)C[C@@H](C)CN(C)[C@H](C)[C@@H](O)[C@]1(C)O (some centres unmarked) | 174 to 175 °C |
| CC[C@H]1OC(=O)[C@H](C)[C@@H](O[C@@H]2C[C@](C)(OC)[C@H](O)C(C)O2)[C@H](C)[C@@H](O[C@@H]2O[C@H](C)C[C@@H](N(C)C)[C@H]2OC(=O)CCCCOC(=O)[C@@]2(O)[C@H](C)CC3C4C[C@H](F)C5=CC(=O)C=C[C@]5(C)[C@@]4(Cl)[C@@H](O)C[C@@]32C)[C@](C)(O)C[C@@H](C)CN(C)[C@H](C)[C@@H](O)[C@]1(C)O (some centres unmarked) | 91 to 99 °C |
| CC[C@H]1OC(=O)[C@H](C)[C@@H](O[C@@H]2C[C@](C)(OC)[C@H](O)C(C)O2)[C@H](C)[C@@H](O[C@@H]2O[C@H](C)C[C@@H](N(C)C)[C@H]2OC(=O)CCCCOC(=O)[C@@]2(O)[C@H](C)CC3C4CCC5=CC(=O)C=C[C@]5(C)[C@@]4(F)[C@@H](O)C[C@@]32C)[C@](C)(O)C[C@@H](C)CN(C)[C@H](C)[C@@H](O)[C@]1(C)O (some centres unmarked) | 161 to 168 °C |
| CC[C@H]1OC(=O)[C@H](C)[C@@H](O)[C@H](C)[C@@H](O[C@@H]2O[C@H](C)C[C@@H](N(C)C)[C@H]2O)[C@](C)(O)C[C@@H](C)CN(CCCNC(=O)[C@@]2(O)[C@H](C)CC3C4CCC5=CC(=O)C=C[C@]5(C)[C@@]4(F)[C@@H](O)C[C@@]32C)[C@H](C)[C@@H](O)[C@]1(C)O (some centres unmarked) | 260 to 265 °C |
| CC[C@H]1OC(=O)[C@H](C)[C@@H](O[C@@H]2C[C@](C)(OC)[C@H](O)C(C)O2)[C@H](C)[C@@H](O[C@@H]2O[C@H](C)C[C@@H](N(C)C)[C@H]2O)[C@](C)(O)C[C@@H](C)CN(CCCNC(=O)[C@@]2(O)[C@H](C)CC3C4C[C@H](F)C5=CC(=O)C=C[C@]5(C)[C@@]4(Cl)[C@@H](O)C[C@@]32C)[C@H](C)[C@@H](O)[C@]1(C)O (some centres unmarked) | 194 to 202 °C |
| CC[C@H]1OC(=O)[C@H](C)[C@@H](O)[C@H](C)C(O[C@@H]2O[C@H](C)C[C@@H](N(C)C)[C@H]2O)[C@](C)(O)C[C@@H](C)CN(CCCNC(=O)[C@@]2(O)[C@H](C)CC3C4C[C@H](F)C5=CC(=O)C=C[C@]5(C)C4[C@@H](O)C[C@@]32C)[C@H](C)[C@@H](O)[C@]1(C)O (some centres unmarked) | 202 to 204 °C |
| CC[C@H]1OC(=O)[C@H](C)[C@@H](O)[C@H](C)[C@@H](O[C@@H]2O[C@H](C)C[C@@H](N(C)C)[C@H]2OC(=O)CCCCOC(=O)[C@@]2(O)[C@H](C)CC3C4CCC5=CC(=O)C=C[C@]5(C)[C@@]4(F)[C@@H](O)C[C@@]32C)[C@](C)(O)C[C@@H](C)CN(C)[C@H](C)[C@@H](O)[C@]1(C)O (some centres unmarked) | 170 °C |
| CC[C@H]1OC(=O)[C@H](C)[C@@H](O)[C@H](C)[C@@H](O[C@@H]2O[C@H](C)C[C@@H](N(C)C)[C@H]2O)[C@](C)(O)C[C@@H](C)CN(CCCNC(=O)[C@@]2(O)[C@H](C)CC3C4C[C@H](F)C5=CC(=O)C=C[C@]5(C)[C@@]4(F)[C@@H](O)C[C@@]32C)[C@H](C)[C@@H](O)[C@]1(C)O (some centres unmarked) | 182 °C |
| CC[C@H]1OC(=O)[C@H](C)[C@@H](O)[C@H](C)[C@@H](O[C@@H]2O[C@H](C)C[C@@H](N(C)C)[C@H]2OC(=O)CCCCOC(=O)[C@@]2(O)[C@H](C)CC3C4C[C@H](F)C5=CC(=O)C=C[C@]5(C)C4[C@@H](O)C[C@@]32C)[C@](C)(O)C[C@@H](C)CN(C)[C@H](C)[C@@H](O)[C@]1(C)O (some centres unmarked) | 145 to 151 °C |
